The values that follow are results of earlier work, collected in US20230241194A1, “PRE-ERYTHROCYTIC MALARIA VACCINES” (PATH, priority 2020, published 2023).

The structures appear in SMILES notation.

The data set has as its target T1, TLR7 (Homo sapiens, UniProt Q9NYK1).
T1 sequence (Q9NYK1 27-1049): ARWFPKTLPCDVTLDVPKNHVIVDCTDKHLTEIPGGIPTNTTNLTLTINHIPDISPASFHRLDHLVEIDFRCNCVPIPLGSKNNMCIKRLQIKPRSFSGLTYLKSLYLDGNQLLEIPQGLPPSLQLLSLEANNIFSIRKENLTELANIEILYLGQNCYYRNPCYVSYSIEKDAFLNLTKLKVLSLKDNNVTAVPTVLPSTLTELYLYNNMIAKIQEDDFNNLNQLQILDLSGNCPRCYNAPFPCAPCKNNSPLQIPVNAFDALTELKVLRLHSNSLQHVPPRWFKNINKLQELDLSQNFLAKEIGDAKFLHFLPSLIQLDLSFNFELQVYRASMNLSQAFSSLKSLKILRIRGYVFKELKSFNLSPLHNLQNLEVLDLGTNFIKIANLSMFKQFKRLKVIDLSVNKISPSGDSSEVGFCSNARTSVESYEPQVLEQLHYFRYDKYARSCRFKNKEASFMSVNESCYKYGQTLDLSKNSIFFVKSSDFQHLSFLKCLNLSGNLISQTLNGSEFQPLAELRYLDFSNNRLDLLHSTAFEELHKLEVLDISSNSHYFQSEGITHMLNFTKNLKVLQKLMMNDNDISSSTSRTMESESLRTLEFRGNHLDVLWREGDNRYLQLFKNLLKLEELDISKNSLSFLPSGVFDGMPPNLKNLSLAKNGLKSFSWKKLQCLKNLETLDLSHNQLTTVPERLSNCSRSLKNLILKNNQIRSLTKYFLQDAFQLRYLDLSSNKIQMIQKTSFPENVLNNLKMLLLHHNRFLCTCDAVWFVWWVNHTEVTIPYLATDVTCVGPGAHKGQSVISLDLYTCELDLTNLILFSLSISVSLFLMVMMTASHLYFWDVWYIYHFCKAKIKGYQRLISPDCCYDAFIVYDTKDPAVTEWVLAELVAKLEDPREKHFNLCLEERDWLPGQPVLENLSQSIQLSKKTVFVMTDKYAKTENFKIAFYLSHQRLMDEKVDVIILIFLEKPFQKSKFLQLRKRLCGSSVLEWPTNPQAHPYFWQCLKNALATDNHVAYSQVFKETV
The conditions noted are these: reported in PTL 1.

For the compound `CCC[C@@H](CCO)Nc1nc(N)nc(C)c1Cc1ccc(CN(C)CCNC(=O)CC/C(C)=C/CC/C(C)=C/CC/C(C)=C/CC/C=C(\C)CC/C=C(\C)CCC=C(C)C)cc1` [Compound A, (4E,8E,12E,16E,20E)-N-{2-[{4-[(2-amino-4-{[(3S)-1-hydroxyhexan-3-yl]amino}-6-methylpyrimidin-5-yl)methyl]benzyl}(methyl)amino]ethyl}-4,8,12,17,21,25-hexamethylhexacosa-4,8,12,16,20,24-hexaenamide], the TLR7 agonistic activity entry is on record as “having TLR7 agonistic activity”.
